These results are taken from ChEMBL document CHEMBL1201862, “PubChem BioAssay data set” (2004).

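1) Cells in 96-well plates. 2) Compound, 48 h, 5 concentrations. 3) Linear interpolation between surrounding doses. 4) Unreached endpoint = highest concentration. GI50: concentration for 50% inhibition of growth.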 Activity calls are given as the source filed them. Rule as the data show it: active = GI50 up to about 1.1 µM and inactive = higher. Some results are limits rather than exact numbers.

Holding throughout (test): DTP human tumour cell line panel, 48 h
Assay [1] deals with NCI-H226.
Assay [2] relates to UO-31.
Assay [3] has as its system OVCAR-3.
The subject of assay [4] is RXF 393.
Assay [5] concerns K562.
The test system of assay [6] is MOLT-4.
In assay [7] the test system is Hs-578T.
The test system of assay [8] is PC-3.
Assay [9] relates to TK-10.
Assay [10] relates to RPMI-8226.
In assay [11] the test system is HOP-62.
The test system of assay [12] is UACC-257.
In assay [13] the test system is HCT-116.
Assay [14] relates to EKVX.
Assay [15] relates to MDA-MB-231.
Assay [16] has as its system OVCAR-8.
For assay [17], the system named is DU-145.
Assay [18] has as its system HCT-15.
The test system of assay [19] is HOP-92.
Assay [20] relates to SK-MEL-28.

In general, GI50 refers to the concentration giving 50% growth inhibition. Turning to `O=c1[nH]c2cc([N+](=O)[O-])c(Nc3c4ccccc4nc4ccccc34)c([N+](=O)[O-])c2[nH]1`, the GI50 in [1] was 3.13 µM (inactive); in [2] it was 2.09 µM (inactive); in [3], 2.58 µM (inactive); in assay [4], 2.42 µM (inactive); in assay [5], 2.42 µM (inactive); in assay [6], 0.938 µM (active). For the same compound, the GI50 in [7] is 7.18 µM (inactive); in assay [8], 3.32 µM (inactive); in [9], 1.92 µM (inactive); in assay [10] it was 2.55 µM (inactive); in assay [11], 2.67 µM (inactive); in assay [12] it was 4.03 µM (inactive). Also, the GI50 is 0.82 µM (active) in assay [13]; 2.47 µM (inactive) in assay [14]; 3.21 µM (inactive) in [15]; 2.43 µM (inactive) in [16]; 2.29 µM (inactive) in [17]; 2.58 µM in assay [18]. The GI50 in assay [19] is 2.48 µM (inactive); in assay [20] it was 3.27 µM (inactive).

Consider `O=[N+]([O-])c1cccc2nc3ccccc3c(NCCCCCNc3c4ccccc4nc4cccc([N+](=O)[O-])c34)c12`, for which the GI50 in assay [1] is 0.245 µM (active); in assay [2], 0.134 µM (active); in assay [3], 0.075 µM (active); in [4] it was 0.0302 µM (active); in assay [5], 0.00466 µM (active); in assay [6], 0.0203 µM (active). The GI50 in assay [7] was 0.0879 µM (active); in [8] it was 0.102 µM (active); in [9], 0.0242 µM (active); in assay [10], 0.00828 µM (active); in assay [11], 0.0579 µM (active); in [12], 0.139 µM (active). The GI50 is 0.0117 µM (active) in assay [13]; 0.133 µM (active) in [14]; 0.0269 µM (active) in [15]; 0.0492 µM (active) in assay [16]; 0.0211 µM (active) in assay [17]; 0.0171 µM in assay [18]. Moreover, the GI50 was 0.0199 µM (active) in [19] and 0.171 µM (active) in assay [20].

For the compound `Cn1c(=S)c2nc(SCCN3CCCC3)[nH]c2n(C)c1=O`, the GI50 in assay [1], in assay [2], in assay [3], in assay [4], in assay [5] and in assay [6] was > 100 µM (inactive) each time. In addition, the GI50 in [7], in [8], in [9], in [10], in [11] and in [12] was > 100 µM (inactive) each time. The GI50 in assay [13] was > 100 µM (inactive); in [14], 76 µM (inactive); in assay [15], > 100 µM (inactive); in assay [16], > 100 µM (inactive); in assay [17] it was > 100 µM (inactive); in [18], more than 100 µM. Moreover, the GI50 in [19] and in assay [20] was > 100 µM (inactive) throughout.

Consider `O=C1/C(=C/c2ccc(Cl)cc2)CCC1CNc1ccc(Cl)cc1` (stereo not given), for which the GI50 in assay [1] is 28.4 µM (inactive); in assay [2], 5.35 µM (inactive); in assay [3], 7.18 µM (inactive); in assay [4], 11.6 µM (inactive); in assay [5], 0.249 µM (active); in [6] it was 2.29 µM (inactive). Besides, the GI50 in [7] is 16.1 µM (inactive); in assay [8] it was 10.5 µM (inactive); in assay [9], 5.11 µM (inactive); in assay [10] it was 0.78 µM (active); in assay [11], 19.9 µM (inactive); in assay [12], 13.8 µM (inactive). Moreover, the GI50 in assay [13] was 4.73 µM (inactive); in assay [14] it was 10.7 µM (inactive); in assay [15] it was 6.7 µM (inactive); in [16] it was 2.42 µM (inactive); in assay [17] it was 13.5 µM (inactive); in assay [18], 2.37 µM. Besides, the GI50 in assay [19] is 19.3 µM (inactive); in assay [20], 15.6 µM (inactive).

Consider `COC(=O)C1(C(=O)OC)CC2=C(S(=O)(=O)c3ccccc3)C[C@H](S(=O)(=O)c3ccccc3)[C@H]2C1`, for which the GI50 in assay [1] is > 100 µM (inactive); in [2], > 100 µM (inactive); in assay [3] it was 29 µM (inactive); in [4], 13.8 µM (inactive); in assay [5], 23.7 µM (inactive); in [6] it was 46.7 µM (inactive). The GI50 in assay [7] is > 100 µM (inactive); in assay [8], 41.9 µM (inactive); in assay [9], 52.4 µM (inactive); in assay [10], 11.7 µM (inactive); in assay [11], 78.9 µM (inactive); in assay [12], > 100 µM (inactive). Moreover, the GI50 in assay [13] was 70.5 µM (inactive); in [14] it was > 100 µM (inactive); in assay [15], 27.4 µM (inactive); in assay [16], > 100 µM (inactive); in [17] it was > 100 µM (inactive); in assay [18] it was 35.3 µM. Further, the GI50 in [19] was 19.6 µM (inactive); in [20], > 100 µM (inactive).

On to `CCOC(=O)c1c(N2CCOCC2)[nH]c(=O)c(C(c2cccs2)c2c(O)c(C(=O)OCC)c(N3CCOCC3)[nH]c2=O)c1O`, for which the GI50 in assay [1], in assay [2], in assay [3], in assay [4], in assay [5] and in assay [6] was > 100 µM (inactive) throughout. For the same compound, the GI50 in assay [7], in [8], in assay [9], in assay [10], in assay [11] and in assay [12] was > 100 µM (inactive) throughout. Besides, the GI50 in assay [13] was > 100 µM (inactive); in [14], > 100 µM (inactive); in assay [15], > 100 µM (inactive); in [16], > 100 µM (inactive); in [17], > 100 µM (inactive); in assay [18] it was more than 100 µM. The GI50 in assay [19] and in assay [20] was > 100 µM (inactive) in each case.

Take `O=C(O)c1c(Br)c(Br)c(Br)c(Br)c1C1c2ccc(O)cc2Oc2cc(O)ccc21`: the GI50 in [1] was > 100 µM (inactive); in assay [2], 33 µM (inactive); in assay [3], > 100 µM (inactive); in assay [4], > 100 µM (inactive); in assay [5] it was > 100 µM (inactive); in assay [6] it was 3.67 µM (inactive). In addition, the GI50 in [7], in assay [8], in assay [9], in assay [10], in assay [11] and in [12] was > 100 µM (inactive) each time. In addition, the GI50 in [13] is > 100 µM (inactive); in assay [14], > 100 µM (inactive); in assay [15] it was > 100 µM (inactive); in assay [16], > 100 µM (inactive); in assay [17], > 100 µM (inactive); in [18], more than 100 µM. Further, the GI50 in assay [19] and in assay [20] was > 100 µM (inactive) in each case.

Take `CN1CCC23c4c5ccc(Oc6nnnn6-c6ccccc6)c4OC2c2[nH]c4ccccc4c2CC3(O)C1C5` (stereo not given): the GI50 is 10.8 µM (inactive) in assay [1]; 1.75 µM (inactive) in assay [2]; 9.4 µM (inactive) in assay [3]; 2.28 µM (inactive) in [4]; 1.81 µM (inactive) in assay [5]; 1.84 µM (inactive) in assay [6]. For the same compound, the GI50 is 9.25 µM (inactive) in assay [7]; 3.68 µM (inactive) in assay [8]; 1.87 µM (inactive) in assay [9]; 2.22 µM (inactive) in assay [10]; 3.24 µM (inactive) in [11]; 1.83 µM (inactive) in assay [12]. The GI50 in [13] is 1.83 µM (inactive); in assay [14] it was 9.64 µM (inactive); in assay [15], 1.81 µM (inactive); in assay [16], 2.86 µM (inactive); in assay [17], 7.16 µM (inactive); in [18], 2.43 µM. Besides, the GI50 is 2.07 µM (inactive) in [19] and 2.1 µM (inactive) in [20].

Turning to `CC(=O)NNc1nc(C)c(C(/C=C/c2ccccc2O)=N/N=C(N)N)s1`, the GI50 in [1], in assay [2], in assay [3], in [4], in [5] and in [6] was > 100 µM (inactive) each time. Also, the GI50 in assay [7], in assay [8], in [9], in assay [10], in assay [11] and in assay [12] was > 100 µM (inactive) each time. Moreover, the GI50 was > 100 µM (inactive) in [13]; 93.8 µM (inactive) in [14]; > 100 µM (inactive) in [15]; > 100 µM (inactive) in assay [16]; > 100 µM (inactive) in assay [17]; more than 100 µM in assay [18]. In addition, the GI50 in [19] and in assay [20] was > 100 µM (inactive) in each case.

As for `COC(=O)/C=C\C(C#N)(C#N)/N=C/c1sccc1C`, the GI50 in assay [1] was 3.33 µM (inactive); in [2] it was 1.77 µM (inactive); in assay [3], 5.05 µM (inactive); in [4], 2 µM (inactive); in assay [5], 3.3 µM (inactive); in assay [6], 1.2 µM (inactive). Further, the GI50 is 7.78 µM (inactive) in [7]; 7.6 µM (inactive) in assay [8]; 1.86 µM (inactive) in [9]; 5.04 µM (inactive) in assay [10]; 14.7 µM (inactive) in [11]; 11.1 µM (inactive) in assay [12]. In addition, the GI50 in assay [13] is 2.43 µM (inactive); in assay [14], 3.59 µM (inactive); in assay [15] it was 0.589 µM (active); in assay [16] it was 2.47 µM (inactive); in [17] it was 7.53 µM (inactive); in assay [18], 1.96 µM. Moreover, the GI50 was 1.91 µM (inactive) in [19] and 4.88 µM (inactive) in assay [20].
